Data: ChEMBL document CHEMBL2401646 (Bioorg Med Chem Lett, 2013)
≈ marks a conversion by molar mass, not a printed value.

Key:
[1] = Solubility of the compound at around physiological pH; format: physicochemical
Mus musculus [2] = experiment: Toxicity in human U87MG cells xenografted nu/nu CD1 mouse model assessed as body weigh loss at 50 mg/kg, po bid for 14 days; format: organism-based, U-87MG ATCC; parameters: dose 50 mg/kg, route oral; details: in vivo, 336 h
Mus musculus [3] = experiment: Toxicity in human U87MG cells xenografted nu/nu CD1 mouse model assessed as body weigh loss at 100 mg/kg, po qd for 14 days; format: organism-based, U-87MG ATCC; parameters: dose 100 mg/kg, route oral; details: in vivo, 336 h
[4] = Antitumor activity against human U87MG cells xenografted in nu/nu CD1 mouse model assessed as tumor growth inhibition at 100 mg/kg, po qd for 14 days; format: functional, U-87MG ATCC; details: U-87 MG, 336 h, read-out: TGI
SNU-5 [5] = experiment: Antitumor activity against human SNU5 cells xenografted in nu/nu CD1 mouse model assessed as tumor growth inhibition at 50 mg/kg, po qd for 20 days; details: SNU-5, po, 480 h, read-out: TGI
[6] = target: Hepatocyte growth factor receptor (Homo sapiens, UniProt P08581); experiment: Inhibition of cMET in human MKN45 cells assessed as phosphorylated MET levels after 4 hrs in presence of mouse plasma; format: cell-based, MKN-45
[7] = target: Hepatocyte growth factor receptor (Homo sapiens, UniProt P08581, Y1230H); experiment: Inhibition of cMET Y1230H mutant (unknown origin) autophosphorylation
[8] = target: T1, ALK tyrosine kinase receptor (Homo sapiens, UniProt Q9UM73); experiment: Inhibition of ALK (unknown origin) autophosphorylation
[9] = target: Macrophage-stimulating protein receptor (Homo sapiens, UniProt Q04912); experiment: Inhibition of short-form RON (unknown origin) expressed in human HeLa cells assessed as phosphorylated RON levels after 4 hrs; format: cell-based
SNU-5 [10] = experiment: Antitumor activity against human SNU5 cells xenografted in nu/nu CD1 mouse model assessed as maximum tumor regression at 200 mg/kg, po qd for 20 days
[11] = Protein binding in human plasma by equilibrium dialysis; format: ADME, cell-free; details: read-out: PPB (converted)
Salmonella typhimurium [12] = experiment: Mutagenic activity in Salmonella typhimurium TA100 by Ames test in presence of liver S9 fraction; format: toxicity, organism-based; details: salmonella enterica subsp. enterica serovar typhimurium
[13] = Antitumor activity against human U87MG cells xenografted in nu/nu CD1 mouse model assessed as tumor growth inhibition at 50 mg/kg, po qd for 14 days; format: functional, U-87MG ATCC; details: U-87 MG, 336 h, read-out: TGI
[14] = Clearance in Sprague-Dawley rat at 2 mg/kg, iv; format: ADME, organism-based; parameters: dose 2 mg/kg, route intravenous; details: in vivo
Mus musculus [15] = experiment: Toxicity in human U87MG cells xenografted nu/nu CD1 mouse model assessed as body weigh loss at 200 mg/kg, po qd for 14 days; format: organism-based, U-87MG ATCC; parameters: dose 200 mg/kg, route oral; details: in vivo, 336 h
[16] = Antitumor activity against human U87MG cells xenografted in nu/nu CD1 mouse model assessed as maximum tumor regression at 100 mg/kg, po bid for 14 days; format: functional, U-87MG ATCC
Mus musculus [17] = experiment: Toxicity in human U87MG cells xenografted nu/nu CD1 mouse model assessed as body weigh loss at 50 mg/kg, po qd for 14 days; format: organism-based, U-87MG ATCC; parameters: dose 50 mg/kg, route oral; details: in vivo, 336 h
MKN-45 = experiment: Antitumor activity against human MKN45 cells xenografted in po dosed nu/nu CD1 mouse model assessed as tumor growth inhibition administered qd for 14 days; format: functional; details: MKN-45, po, 336 h
Mus musculus [18] = experiment: Toxicity in human SNU5 cells xenografted nu/nu CD1 mouse model assessed as body weigh loss at 100 mg/kg, po qd for 20 days; details: in vivo, 480 h
[19] = Protein binding in mouse plasma by equilibrium dialysis; format: ADME, cell-free; details: read-out: PPB (converted)
[20] = Plasma concentration in human MKN45 cells xenografted in mouse at 100 mg/kg, po after 16 hrs; format: ADME, organism-based, MKN-45; parameters: dose 100 mg/kg, route oral
[21] = Antitumor activity against human U87MG cells xenografted in nu/nu CD1 mouse model assessed as maximum tumor regression at 50 mg/kg, po qd for 14 days; format: functional, U-87MG ATCC
Mus musculus [22] = experiment: Inhibition of cMET autophosphorylation at Y1234/1235 in human MKN45 cells xenografted in nu/nu CD1 mouse at 100 mg/kg, po qd for 14 days measured after 24 hrs of last dose; format: functional; details: MKN-45
Salmonella typhimurium [23] = experiment: Mutagenic activity in Salmonella typhimurium TA98 by Ames test in presence of liver S9 fraction; format: toxicity, organism-based; details: salmonella enterica subsp. enterica serovar typhimurium
Salmonella typhimurium [24] = experiment: Mutagenic activity in Salmonella typhimurium TA98 by Ames test in absence of liver S9 fraction; format: toxicity, organism-based; details: salmonella enterica subsp. enterica serovar typhimurium
Mus musculus [25] = experiment: Toxicity in human SNU5 cells xenografted nu/nu CD1 mouse model assessed as body weigh loss at 200 mg/kg, po qd for 20 days; details: in vivo, 480 h
[26] = Solubility of the compound at pH 4.5; format: physicochemical; details: buffer
Mus musculus [27] = experiment: Toxicity in human SNU5 cells xenografted nu/nu CD1 mouse model assessed as body weigh loss at 50 mg/kg, po qd for 20 days; details: in vivo, 480 h
[28] = Cmax in Sprague-Dawley rat at 20 mg/kg, po; format: ADME, organism-based; parameters: dose 20 mg/kg, route oral; details: in vivo
[29] = target: T1, ALK tyrosine kinase receptor; experiment: Inhibition of ALK autophosphorylation in human Karpas-299 cells; format: cell-based
[30] = Antitumor activity against human U87MG cells xenografted in nu/nu CD1 mouse model assessed as maximum tumor regression at 100 mg/kg, po qd for 14 days; format: functional, U-87MG ATCC
[31] = Metabolic stability in mouse liver microsomes assessed as extraction ratio up to 40 mins by LC-MS/MS analysis; format: ADME, Microsome; details: read-out: ERH
[32] = Metabolic stability in human liver microsomes assessed as extraction ratio up to 40 mins by LC-MS/MS analysis; format: ADME, Microsome; details: read-out: ERH
[33] = target: T2, Vascular endothelial growth factor receptor 2 (Homo sapiens, UniProt P35968); experiment: Inhibition of KDR autophosphorylation in HUVEC
SNU-5 [34] = experiment: Antitumor activity against human SNU5 cells xenografted in nu/nu CD1 mouse model assessed as maximum tumor regression at 100 mg/kg, po qd for 20 days
[35] = Volume of distribution at steady state in CD1 mouse at 2 mg/kg, iv; format: ADME, organism-based; parameters: dose 2 mg/kg, route intravenous; details: in vivo, read-out: Vdss
[36] = Permeability of the compound at pH 7.4 by PAMPA; format: ADME; details: read-out: permeability
Aurora kinase B [37] = target: T3, Aurora kinase B (Homo sapiens, UniProt Q96GD4); experiment: Inhibition of aurora-B in human HT-29 cells assessed as phosphorylation of histone H3 at Ser10 in presence of mouse plasma; format: cell-based
Salmonella typhimurium [38] = experiment: Mutagenic activity in Salmonella typhimurium TA100 by Ames test in absence of liver S9 fraction; format: toxicity, organism-based; details: salmonella enterica subsp. enterica serovar typhimurium
[39] = target: T2, Vascular endothelial growth factor receptor 2; experiment: Inhibition of KDR (unknown origin) autophosphorylation
Aurora kinase B [40] = target: T3, Aurora kinase B; experiment: Inhibition of aurora-B in human HT-29 cells assessed as phosphorylation of histone H3 at Ser10; format: cell-based
[41] = AUC (0 to last) in Sprague-Dawley rat at 20 mg/kg, po; format: ADME, organism-based; parameters: time 0 - last, dose 20 mg/kg, route oral; details: plasma
[42] = Antitumor activity against human U87MG cells xenografted in nu/nu CD1 mouse model assessed as maximum tumor regression at 50 mg/kg, po bid for 14 days; format: functional, U-87MG ATCC

T2 sequence (P35968 whole entry): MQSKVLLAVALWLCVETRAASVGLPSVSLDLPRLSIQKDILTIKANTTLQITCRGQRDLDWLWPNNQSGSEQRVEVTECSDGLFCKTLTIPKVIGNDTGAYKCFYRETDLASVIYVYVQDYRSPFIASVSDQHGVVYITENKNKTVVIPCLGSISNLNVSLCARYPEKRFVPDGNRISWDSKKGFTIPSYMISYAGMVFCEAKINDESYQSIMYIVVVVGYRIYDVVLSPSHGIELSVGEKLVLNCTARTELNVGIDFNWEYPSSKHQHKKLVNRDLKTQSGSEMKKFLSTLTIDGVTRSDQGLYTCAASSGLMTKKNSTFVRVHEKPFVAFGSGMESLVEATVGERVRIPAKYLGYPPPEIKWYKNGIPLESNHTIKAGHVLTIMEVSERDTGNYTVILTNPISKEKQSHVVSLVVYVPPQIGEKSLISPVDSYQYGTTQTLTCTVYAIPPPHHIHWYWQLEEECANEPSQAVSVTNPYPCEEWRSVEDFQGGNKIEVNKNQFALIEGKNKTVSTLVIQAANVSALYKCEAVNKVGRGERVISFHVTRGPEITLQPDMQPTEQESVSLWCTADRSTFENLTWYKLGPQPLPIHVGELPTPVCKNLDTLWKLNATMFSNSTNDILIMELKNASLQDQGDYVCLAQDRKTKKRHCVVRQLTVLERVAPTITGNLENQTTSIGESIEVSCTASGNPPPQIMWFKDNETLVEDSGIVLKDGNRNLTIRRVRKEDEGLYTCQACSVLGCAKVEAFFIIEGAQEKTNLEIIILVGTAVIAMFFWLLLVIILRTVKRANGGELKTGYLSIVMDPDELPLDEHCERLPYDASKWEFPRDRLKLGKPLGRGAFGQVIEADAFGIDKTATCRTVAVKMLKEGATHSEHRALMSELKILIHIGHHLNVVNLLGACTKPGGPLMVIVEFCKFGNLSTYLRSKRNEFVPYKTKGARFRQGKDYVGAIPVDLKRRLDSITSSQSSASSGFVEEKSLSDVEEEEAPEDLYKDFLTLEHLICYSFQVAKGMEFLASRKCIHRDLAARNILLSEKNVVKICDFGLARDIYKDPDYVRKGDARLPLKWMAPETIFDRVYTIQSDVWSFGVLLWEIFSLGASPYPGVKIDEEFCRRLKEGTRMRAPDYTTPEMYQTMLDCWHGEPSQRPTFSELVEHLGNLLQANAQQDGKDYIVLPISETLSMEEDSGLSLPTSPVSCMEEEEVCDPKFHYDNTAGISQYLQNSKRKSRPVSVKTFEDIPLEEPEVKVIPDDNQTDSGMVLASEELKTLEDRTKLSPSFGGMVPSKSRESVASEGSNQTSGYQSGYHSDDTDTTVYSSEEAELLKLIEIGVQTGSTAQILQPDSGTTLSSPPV
T3 sequence (Q96GD4 whole entry): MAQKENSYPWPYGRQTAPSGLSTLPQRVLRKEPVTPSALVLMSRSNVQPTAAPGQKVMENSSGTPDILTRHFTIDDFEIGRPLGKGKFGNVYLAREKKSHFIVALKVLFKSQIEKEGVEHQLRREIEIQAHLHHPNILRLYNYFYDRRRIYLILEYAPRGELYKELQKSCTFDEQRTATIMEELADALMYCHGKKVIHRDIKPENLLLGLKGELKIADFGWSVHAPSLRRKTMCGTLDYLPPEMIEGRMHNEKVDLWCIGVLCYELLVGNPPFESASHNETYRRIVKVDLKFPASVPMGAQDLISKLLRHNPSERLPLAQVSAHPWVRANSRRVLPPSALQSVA
T1 sequence (Q9UM73 whole entry): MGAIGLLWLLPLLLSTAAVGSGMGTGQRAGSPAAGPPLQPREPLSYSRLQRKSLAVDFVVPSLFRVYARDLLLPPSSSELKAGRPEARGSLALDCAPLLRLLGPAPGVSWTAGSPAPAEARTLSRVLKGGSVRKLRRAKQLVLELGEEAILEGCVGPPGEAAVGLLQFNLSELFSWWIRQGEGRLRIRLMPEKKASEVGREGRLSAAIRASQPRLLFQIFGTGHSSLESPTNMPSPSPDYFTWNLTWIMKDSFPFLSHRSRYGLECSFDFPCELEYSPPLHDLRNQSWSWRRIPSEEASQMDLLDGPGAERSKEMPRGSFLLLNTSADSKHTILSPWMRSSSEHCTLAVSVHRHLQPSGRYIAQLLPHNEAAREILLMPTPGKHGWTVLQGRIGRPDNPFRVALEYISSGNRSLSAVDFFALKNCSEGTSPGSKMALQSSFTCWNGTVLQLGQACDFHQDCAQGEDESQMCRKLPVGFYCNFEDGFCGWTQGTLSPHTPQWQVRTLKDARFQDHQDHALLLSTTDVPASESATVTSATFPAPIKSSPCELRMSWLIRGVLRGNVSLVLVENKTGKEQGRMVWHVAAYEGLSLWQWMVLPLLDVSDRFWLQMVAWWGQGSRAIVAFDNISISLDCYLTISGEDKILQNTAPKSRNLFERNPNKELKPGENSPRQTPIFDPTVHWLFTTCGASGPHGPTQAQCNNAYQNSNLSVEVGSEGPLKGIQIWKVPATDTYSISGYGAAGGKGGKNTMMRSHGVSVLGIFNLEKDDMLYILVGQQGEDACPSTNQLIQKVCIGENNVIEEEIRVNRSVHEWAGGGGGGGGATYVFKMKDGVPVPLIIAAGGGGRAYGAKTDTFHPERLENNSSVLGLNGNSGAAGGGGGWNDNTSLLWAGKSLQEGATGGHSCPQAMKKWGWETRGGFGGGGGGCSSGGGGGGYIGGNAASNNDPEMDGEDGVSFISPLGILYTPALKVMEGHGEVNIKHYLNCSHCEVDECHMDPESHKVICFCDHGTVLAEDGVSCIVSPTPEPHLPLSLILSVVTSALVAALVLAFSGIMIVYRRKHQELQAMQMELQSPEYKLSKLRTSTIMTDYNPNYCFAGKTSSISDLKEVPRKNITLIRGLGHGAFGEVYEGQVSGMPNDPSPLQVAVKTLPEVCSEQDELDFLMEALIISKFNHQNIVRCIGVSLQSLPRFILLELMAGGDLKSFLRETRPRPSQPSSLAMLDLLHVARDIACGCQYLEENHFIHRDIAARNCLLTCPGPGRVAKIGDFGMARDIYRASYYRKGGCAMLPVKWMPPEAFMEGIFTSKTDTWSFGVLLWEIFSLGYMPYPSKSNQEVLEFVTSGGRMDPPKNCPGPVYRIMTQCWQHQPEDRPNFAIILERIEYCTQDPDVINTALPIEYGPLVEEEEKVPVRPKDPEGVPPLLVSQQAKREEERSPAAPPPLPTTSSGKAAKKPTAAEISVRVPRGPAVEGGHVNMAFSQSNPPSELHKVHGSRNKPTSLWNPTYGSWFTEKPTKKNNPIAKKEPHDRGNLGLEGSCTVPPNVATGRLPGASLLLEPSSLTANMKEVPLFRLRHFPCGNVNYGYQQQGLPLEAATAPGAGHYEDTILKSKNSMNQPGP
Chain of Hepatocyte growth factor receptor (Homo sapiens, UniProt P08581, Y1230H) (P08581 25-1390 Y1230H limits assumed): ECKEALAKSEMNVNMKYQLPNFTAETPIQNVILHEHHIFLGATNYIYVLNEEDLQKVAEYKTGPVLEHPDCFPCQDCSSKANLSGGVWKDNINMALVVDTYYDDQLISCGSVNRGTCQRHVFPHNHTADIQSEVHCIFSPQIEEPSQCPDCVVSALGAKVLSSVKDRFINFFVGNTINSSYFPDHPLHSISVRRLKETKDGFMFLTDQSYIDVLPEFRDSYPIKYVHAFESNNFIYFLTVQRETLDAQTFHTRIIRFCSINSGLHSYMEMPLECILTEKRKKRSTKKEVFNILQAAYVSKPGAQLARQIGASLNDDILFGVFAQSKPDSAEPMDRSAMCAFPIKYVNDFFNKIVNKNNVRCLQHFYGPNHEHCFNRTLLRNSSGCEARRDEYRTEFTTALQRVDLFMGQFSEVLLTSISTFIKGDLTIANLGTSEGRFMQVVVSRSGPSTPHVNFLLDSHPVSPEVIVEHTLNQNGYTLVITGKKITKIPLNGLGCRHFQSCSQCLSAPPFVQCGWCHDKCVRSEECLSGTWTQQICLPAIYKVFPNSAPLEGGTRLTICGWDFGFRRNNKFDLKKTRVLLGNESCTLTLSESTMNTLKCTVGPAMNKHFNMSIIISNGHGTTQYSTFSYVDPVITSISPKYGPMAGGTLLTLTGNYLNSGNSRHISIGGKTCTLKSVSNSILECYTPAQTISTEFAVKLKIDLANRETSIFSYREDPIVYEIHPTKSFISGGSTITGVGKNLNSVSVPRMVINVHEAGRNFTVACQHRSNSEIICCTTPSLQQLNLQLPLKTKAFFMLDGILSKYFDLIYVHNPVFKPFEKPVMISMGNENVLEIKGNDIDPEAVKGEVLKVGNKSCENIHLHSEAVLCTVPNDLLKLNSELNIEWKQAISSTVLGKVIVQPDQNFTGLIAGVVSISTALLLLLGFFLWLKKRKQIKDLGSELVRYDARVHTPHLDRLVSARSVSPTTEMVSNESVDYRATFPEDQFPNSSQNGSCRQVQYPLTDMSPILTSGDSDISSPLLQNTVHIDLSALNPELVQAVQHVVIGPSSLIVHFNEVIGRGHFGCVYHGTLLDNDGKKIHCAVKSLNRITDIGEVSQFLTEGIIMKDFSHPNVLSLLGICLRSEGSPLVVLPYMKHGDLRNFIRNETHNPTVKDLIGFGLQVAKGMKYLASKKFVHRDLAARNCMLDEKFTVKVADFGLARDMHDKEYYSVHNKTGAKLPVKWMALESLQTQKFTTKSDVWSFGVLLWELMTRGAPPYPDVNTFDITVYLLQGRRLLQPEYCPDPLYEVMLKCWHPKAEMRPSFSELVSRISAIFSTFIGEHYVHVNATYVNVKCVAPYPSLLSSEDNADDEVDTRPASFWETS

SMILES: C[C@@H](Oc1c(N)ncc2c(C3=CCN(C(N)=O)CC3)coc12)c1c(Cl)ccc(F)c1Cl
- solubility [1]: 1 µM (≈ 0.465 µg/mL)
- Activity (Mus musculus [2]): 5%
- Activity (Mus musculus [3]): 0%
- inhibition in vivo at 100 mg/kg [4]: 79%
- inhibition in vivo at 50 mg/kg (SNU-5 [5]): 100%
- IC50 [6]: 0.6 µM
- IC50 [7]: 0.11 µM
- IC50 [8]: 0.04 µM
- IC50 [9]: 0.2 µM
- Activity (SNU-5 [10]): 80%
- fraction unbound [11]: 0.019
- Activity (Salmonella typhimurium [12]): Non-toxic
- inhibition in vivo at 50 mg/kg [13]: 58%
- clearance [14]: 39 mL/min/kg
- Activity (Mus musculus [15]): 0%
- Activity [16]: 22%
- Activity (Mus musculus [17]): 0%
- ED50 (MKN-45): 50 mg/kg
- Activity (Mus musculus [18]): 2%
- fraction unbound [19]: 0.018
- concentration at 16 h [20]: 520 nM
- Activity [21]: 0%
- inhibition in vivo at 100 mg/kg (Mus musculus [22]): > 90%
- Activity (Salmonella typhimurium [23]): Non-toxic
- Activity (Salmonella typhimurium [24]): Non-toxic
- Activity (Mus musculus [25]): 4%
- solubility [26]: 11 µM (≈ 5.12 µg/mL)
- Activity (Mus musculus [27]): 4%
- Cmax [28]: 2500 nM
- IC50 [29]: 0.5 µM
- Activity [30]: 0%
- hepatic extraction ratio at 40 min [31]: 0.7
- hepatic extraction ratio at 40 min [32]: 0.7
- IC50 [33]: 6.1 µM
- Activity (SNU-5 [34]): 64%
- Vd [35]: 3.8 L/kg
- Papp [36]: 359 ×10⁻⁶ cm/s
- IC50 (Aurora kinase B [37]): > 10 µM
- Activity (Salmonella typhimurium [38]): Non-toxic
- IC50 [39]: 1.3 µM
- IC50 (Aurora kinase B [40]): 1 µM
- AUC(0-t) [41]: 6200 ng·h/mL
- Activity [42]: 0%
